What all share (test): LC-MS of product formed by Pichia cells expressing the enzyme
Holding throughout (assay type): cell-based

Experiment [1] addresses T1, BBE (EcBBE), berberine bridge enzyme (Eschscholzia californica, UniProt P30986).
T1 construct: gene BBE1; codon-optimized synthetic gene in pPIC3.5/pPIC3.5K; expressed in Pichia pastoris GS115; whole cells
Particulars: in vivo reaction, BMMY medium pH 6.0, 30 °C, 24 h; racemic substrate; vector control.

Experiment [2] has as its target T2, CYP719A5 (EcCYP719A5), cheilanthifoline synthase (Eschscholzia californica, UniProt B5UAQ8).
T2 construct: codon-optimized synthetic gene in pPIC3.5/pPIC3.5K; expressed in Pichia pastoris GS115; whole cells, endogenous yeast reductase (no plant CPR)
Particulars: in vivo reaction, BMMY medium pH 6.0, 30 °C, 24 h; vector control.

The target in experiment [3] is T3, CYP719A2 (EcCYP719A2), stylopine synthase (Eschscholzia californica, UniProt C3SBS2).
T3 construct: codon-optimized synthetic gene in pPIC3.5/pPIC3.5K; expressed in Pichia pastoris GS115; whole cells, endogenous yeast reductase (no plant CPR)
Particulars: in vivo reaction, BMMY medium pH 6.0, 30 °C, 24 h; substrate supplied as CYP719A5 reaction product; vector control.

T2 sequence (B5UAQ8 whole entry): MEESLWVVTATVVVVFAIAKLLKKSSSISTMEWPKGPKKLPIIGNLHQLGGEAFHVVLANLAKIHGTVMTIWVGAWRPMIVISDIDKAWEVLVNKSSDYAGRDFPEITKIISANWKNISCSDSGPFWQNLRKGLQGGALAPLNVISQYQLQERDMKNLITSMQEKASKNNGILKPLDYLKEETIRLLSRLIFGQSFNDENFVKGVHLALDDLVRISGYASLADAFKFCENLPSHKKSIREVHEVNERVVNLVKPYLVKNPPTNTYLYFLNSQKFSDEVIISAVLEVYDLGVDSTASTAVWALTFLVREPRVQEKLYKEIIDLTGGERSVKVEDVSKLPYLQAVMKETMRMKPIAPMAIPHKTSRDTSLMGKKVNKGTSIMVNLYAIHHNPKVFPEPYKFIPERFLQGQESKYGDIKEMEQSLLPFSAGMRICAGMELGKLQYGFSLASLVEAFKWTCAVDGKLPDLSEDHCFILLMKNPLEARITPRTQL
T1 sequence (P30986 24-538): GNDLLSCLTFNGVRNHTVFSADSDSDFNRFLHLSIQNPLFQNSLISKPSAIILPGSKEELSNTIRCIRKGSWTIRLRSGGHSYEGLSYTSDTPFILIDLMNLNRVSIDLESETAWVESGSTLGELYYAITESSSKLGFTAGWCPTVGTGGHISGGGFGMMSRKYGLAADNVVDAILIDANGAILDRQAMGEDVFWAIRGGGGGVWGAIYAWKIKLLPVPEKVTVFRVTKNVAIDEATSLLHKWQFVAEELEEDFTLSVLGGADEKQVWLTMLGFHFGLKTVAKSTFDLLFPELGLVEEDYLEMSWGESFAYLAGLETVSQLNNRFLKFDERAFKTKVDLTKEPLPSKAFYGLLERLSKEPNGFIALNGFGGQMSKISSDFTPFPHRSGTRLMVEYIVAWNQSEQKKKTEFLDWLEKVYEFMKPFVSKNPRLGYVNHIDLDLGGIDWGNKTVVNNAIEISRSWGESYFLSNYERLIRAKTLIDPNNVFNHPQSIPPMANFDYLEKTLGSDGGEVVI
T3 sequence (C3SBS2 entry or part of it): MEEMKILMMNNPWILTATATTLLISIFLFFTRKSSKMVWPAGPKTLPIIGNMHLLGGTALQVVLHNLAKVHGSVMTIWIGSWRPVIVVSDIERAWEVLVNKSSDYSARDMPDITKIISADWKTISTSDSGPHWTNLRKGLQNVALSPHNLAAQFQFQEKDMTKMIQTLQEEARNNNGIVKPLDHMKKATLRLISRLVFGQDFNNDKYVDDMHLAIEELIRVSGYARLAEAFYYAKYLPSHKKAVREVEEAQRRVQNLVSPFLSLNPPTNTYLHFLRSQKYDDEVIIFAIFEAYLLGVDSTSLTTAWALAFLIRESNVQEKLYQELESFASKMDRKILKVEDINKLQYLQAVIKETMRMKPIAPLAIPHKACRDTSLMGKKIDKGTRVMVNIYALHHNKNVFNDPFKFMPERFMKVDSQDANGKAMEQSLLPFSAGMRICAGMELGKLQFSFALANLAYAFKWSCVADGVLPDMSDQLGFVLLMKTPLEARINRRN

Consider `COc1ccc(CC2c3cc(O)c(OC)cc3CCN2C)cc1O` (racemic) [(R, S)-reticuline], for which, in experiment [1], the “LC-MS of product formed by Pichia cells expressing the enzyme” value (“LC-MS of product formed” for short) is “reaction products of BBE and CYP719A5 (i.e., scoulerine from reticuline and cheilanthifoline from scoulerine)”.

As to `COc1cc2c(cc1O)[C@@H]1Cc3ccc(OC)c(O)c3CN1CC2` [(S)-scoulerine], in experiment [2], the “LC-MS of product formed” value is “The formation of cheilanthifoline by CYP719A5 from scoulerine was confirmed by the production of stylopine”. Consider `COc1cc2c(cc1O)[C@@H]1Cc3ccc4c(c3CN1CC2)OCO4` [cheilanthifoline], for which the “LC-MS of product formed” value in experiment [3] is given as “CYP719A5 reaction product (chielanthifoline) for CYP719A2 reaction”.

Values taken from PMC4770593, “Efficient microbial production of stylopine using a Pichia pastoris expression system” (Scientific Reports, 2016).
